Several values for one entry are separate records, joined by “and”; a condition that tells them apart may be missing. Identical values can stand only once.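 Results reflect a 48-hour exposure of cells in 96-well plates to compound at five concentrations. The concentration for 50% growth inhibition is given as GI50. The concentration for full growth arrest is given as TGI.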
Columns and labels:
Assay in all cases: NCI-60 cell line screen, 48 h
UO-31 renal = system: UO-31 renal
CAKI-1 renal = system: CAKI-1 renal
LOX IMVI melanoma = system: LOX IMVI melanoma
SNB-19 CNS = system: SNB-19 CNS
HCT-116 colon = system: HCT-116 colon
KM12 colon = system: KM12 colon
SN12C renal = system: SN12C renal
HL-60(TB) leukemia = system: HL-60(TB) leukemia
TK-10 renal = system: TK-10 renal
SK-MEL-2 melanoma = system: SK-MEL-2 melanoma
SF-539 CNS = system: SF-539 CNS
COLO 205 colon = system: COLO 205 colon
MDA-MB-435 = system: MDA-MB-435
MCF7 breast = system: MCF7 breast
MDA-N = system: MDA-N
T-47D breast = system: T-47D breast

SMILES	TGI (UO-31 renal)	TGI (CAKI-1 renal)	TGI (LOX IMVI melanoma)	TGI (SNB-19 CNS) [µM]	TGI (HCT-116 colon)	TGI (KM12 colon)	TGI (SN12C renal)	TGI (HL-60(TB) leukemia)	TGI (TK-10 renal)	TGI (SK-MEL-2 melanoma)	TGI (SF-539 CNS)	TGI (COLO 205 colon)	TGI (MDA-MB-435)	TGI (MCF7 breast)	TGI (MDA-N)	TGI (T-47D breast) [µM]	GI50 (UO-31 renal) [µM]	GI50 (CAKI-1 renal) [µM]	GI50 (TK-10 renal) [µM]
CC(C)(C)N=CN1C=Cc2nc3ccccc3cc2C1	> 100 µM	> 100 µM	73.8 µM	> 100	> 100 µM	> 100 µM	> 100 µM	> 100 µM	> 100 µM	> 100 µM	> 100 µM	> 100 µM							
CCOC1=C2N=C(C(CC)c3ccccc3F)N=C2C(=O)c2ccccc21 (centres undefined)	> 100 µM	> 100 µM		> 100	> 100 µM	> 100 µM	> 100 µM	> 100 µM	> 100 µM	> 100 µM	> 100 µM	> 100 µM							
O=C(CNc1ccccn1)Nn1cnc2ccc(S(=O)(=O)Nc3ccccn3)cc2c1=O	> 100 µM	> 100 µM	> 100 µM	> 100	> 100 µM	> 100 µM	> 100 µM	> 100 µM	> 100 µM	> 100 µM	> 100 µM	> 100 µM	> 100 µM	> 100 µM	> 100 µM				
CC1=CC2C(C=C1)S(=O)(=O)N1CC21c1ccccc1 (centres undefined)	> 100 µM	> 100 µM	> 100 µM	> 100	> 100 µM	> 100 µM	> 100 µM	> 100 µM	> 100 µM	> 100 µM	> 100 µM	> 100 µM							
CC1(C)OC(=O)C(C)(C)C(=O)O1	> 100 µM	> 100 µM	> 100 µM	> 100	> 100 µM	> 100 µM	> 100 µM		> 100 µM	> 100 µM	> 100 µM	> 100 µM		> 100 µM	> 100 µM	> 100			
O=Cc1c[nH]c2c(=O)[nH]cnc12	> 100 µM	> 100 µM	> 100 µM	> 100	> 100 µM	> 100 µM	> 100 µM	> 100 µM	> 100 µM	> 100 µM		> 100 µM							
COc1ccc2[nH]c3c(c2c1)[C@H](c1ccccc1)C[C@@H]1C(=O)N(c2ccccc2)C(=O)[C@H]31	52.3 µM	71.7 µM	> 100 µM	> 100	19 µM	43.6 µM	33.3 µM		> 100 µM	> 100 µM	> 100 µM	> 100 µM							
O=C(Cc1ccccc1)NN1C(=O)C(Cl)C1c1ccccc1Cl (centres undefined)	> 100 µM	> 100 µM	> 59.5 µM	> 100	> 100 µM	> 100 µM	> 100 µM	> 100 µM	> 100 µM	> 100 µM	> 100 µM	> 100 µM							
CCOC(=O)c1c2ccc(/C=C/c3ccccn3)ccc-2c(C(=O)OCC)c1N	> 100 µM	> 100 µM	> 100 µM	> 100		> 100 µM		> 100 µM	> 100 µM	> 100 µM	> 100 µM	> 100 µM							
COc1cc2c(c(OC)c1OC)-c1ccc(SC)c(=O)cc1[C@@H](NCc1ccc(F)cc1)CC2	75 µM and 95.9 µM	51.7 µM and > 100 µM	11.9 µM and 13.5 µM	75	0.079 µM		20.8 µM	> 100 µM	75 µM and > 100 µM			< 0.0075 µM					< 0.0075	< 0.0075	0.182
COc1ccc(/C=c2\c(=O)[nH]c3nc4ccccc4c(=O)n23)cc1	> 100 µM	> 100 µM	> 100 µM	> 100	> 100 µM	> 100 µM	> 100 µM	> 100 µM	> 100 µM	> 100 µM	> 100 µM	> 100 µM	> 100 µM	> 100 µM		> 100			
COc1cc2ccc3c4ccccc4cnc3c2cc1OC	> 100 µM	> 100 µM	> 100 µM	> 100	> 100 µM	> 100 µM	> 100 µM	> 100 µM	> 100 µM	> 100 µM	> 100 µM	> 100 µM							
N#CC(NNC(=O)Cc1ccccc1)c1cccc(O)c1 (centres undefined)	> 100 µM	> 100 µM	> 100 µM		> 100 µM	> 100 µM	> 100 µM	> 100 µM	> 100 µM	> 100 µM	> 100 µM	> 100 µM							
CN(C)c1ccc(/C=C/C(=O)c2ccc(O)cc2)cc1	> 100 µM	> 100 µM	45.1 µM	> 100	> 68 µM	> 100 µM	> 100 µM	5.57 µM	> 100 µM	> 49.1 µM	13.5 µM	26.6 µM	3.22 µM	> 100 µM		57.6			
CC1=CC(=O)CC2(C)CCC(C(C)CC(=O)CC(C)C)CC12OO (centres undefined)	29.8 µM and 34.7 µM	33.5 µM and 33.4 µM	31.5 µM and 27.9 µM	> 100	30.2 µM and 29.7 µM	33.2 µM and 29.4 µM	38 µM and 33.8 µM	74.7 µM and 17.4 µM	32.8 µM and 34.1 µM	37.9 µM and 31.9 µM	28.9 µM and 30 µM	27.8 µM and 34.8 µM	31.3 µM and 34.2 µM	31.9 µM and 31.7 µM	34.7 µM and 33.4 µM				
Cc1c(C)c2c(c(N)c1C#N)C(=O)N(O)C2=O	> 100 µM	> 100 µM		> 100	> 100 µM	> 100 µM	> 100 µM	> 100 µM	> 100 µM	> 100 µM	> 100 µM	> 100 µM	> 100 µM	> 100 µM		> 100			
COC(=O)C1CC2C=CC=CC(=O)C2(C)C1 (centres undefined)	> 100 µM	> 100 µM	> 100 µM	> 100	86.3 µM	> 100 µM	> 100 µM	55.1 µM	> 100 µM	> 100 µM	> 100 µM	> 100 µM							
CC(C)c1cccc(C(C)C)c1NC(=O)C(=O)Cc1nc2ccc([N+](=O)[O-])cc2[nH]c1=O	> 100 µM	> 100 µM	> 100 µM	> 100	> 100 µM	28.7 µM		> 100 µM	> 100 µM	> 100 µM	> 100 µM	> 100 µM							
CC1=C(c2nc3ccccc3s2)C(=O)OC1(C)C	> 100 µM	> 100 µM	> 100 µM	> 100	> 100 µM	> 100 µM	> 100 µM			> 100 µM	> 100 µM	> 100 µM							
Cc1cc2ncn(-c3nc4ccccc4nc3C(C#N)S(C)(=O)=O)c2cc1C (centres undefined)	> 100 µM	> 100 µM	> 100 µM	> 100	> 100 µM	> 100 µM	> 100 µM	> 100 µM	> 100 µM	> 100 µM	> 100 µM	> 100 µM							
COCC(C)(C)N=CN1Cc2cc3ccccc3nc2C1	> 100 µM	> 100 µM		> 100	> 100 µM	> 100 µM	> 100 µM	> 100 µM	> 100 µM	> 100 µM	> 100 µM	> 100 µM							
COc1ccc(C2=Nc3c(nc(OC)[nH]c3=O)NC(c3ccccc3)C2)cc1 (centres undefined)	> 100 µM	> 100 µM	70.3 µM	> 100	> 100 µM	36.3 µM	62.6 µM	56.9 µM		> 100 µM	94.1 µM	50.3 µM	> 100 µM	68.2 µM	64.5 µM				
CC(=O)Nc1[nH]n(C)c(=O)c1-c1nnc(C)s1	> 100 µM	> 100 µM	> 100 µM	> 100	> 100 µM	> 100 µM	> 100 µM	> 100 µM	> 100 µM	> 100 µM	> 100 µM	> 100 µM							
CCCCCCCC/C=C1\CCC(CN(C)C)C1=O (centres undefined)	25.2 µM	10 µM	4.09 µM	30.4	7.34 µM	7.09 µM	14.6 µM	22.2 µM	6.03 µM	24.6 µM	9.32 µM	14.8 µM							
C=C1CC(C)(COc2ccc3c(C)c(Cl)c(=O)oc3c2)OC1=O (centres undefined)	9.63 µM	6.58 µM	2.91 µM	26.7	1.57 µM	14.5 µM	18.9 µM	1.21 µM	3.06 µM	4.47 µM	15.6 µM	2.43 µM	11.7 µM	3.15 µM	5.45 µM				
COC(=O)C(=O)C(C(=O)OC)C(=O)C(=O)Nc1c(C)cccc1C (centres undefined)	> 100 µM	> 100 µM	> 100 µM	> 100	> 100 µM	> 100 µM	> 100 µM	> 100 µM	> 100 µM	> 100 µM	> 100 µM	> 100 µM							
Nc1nc(NNc2cccc(F)c2)cc(=O)[nH]1	> 100 µM		43.2 µM	> 100	61.2 µM	56.8 µM	> 100 µM	59.3 µM	> 100 µM		> 100 µM	54.3 µM	64.9 µM	89.1 µM					
O=C1NC2NC3NC(=O)NC3NC2N1 (centres undefined)	> 100 µM	> 100 µM	> 100 µM	> 100	> 100 µM	> 100 µM	> 100 µM	> 100 µM		> 100 µM	> 100 µM	> 100 µM	> 100 µM	> 100 µM	> 100 µM				

Source: PubChem BioAssay (NCI)
